Experimental data taken from patent US20020007663A1, “Method of introducing an in situant into a vapor compression system, especially useful for leak detection, as well as an apparatus for leak detection and a composition useful for leak detection” (Mainstream Engineering Corporation, priority 1997, published 2002).
Read-outs that look alike come from different tables or passages of the source.

Assay: solubility of fluorescent in situants in POE oils, alcohols, AB oil and mineral oil
Conditions: for solubility in POE oil: two different POE oils
Experimental: We have measured the solubility of several fluorescent and daylight-visible in situants in various POE oils and prepared solutions comprised solely of the POE carrier fluid (i.e., no alcohol in the carrier fluid) and these in situants. An example composition is 30 wt. % N-phenyl-1-naphthylamine and 70 wt. % POE oil. […] For example, a composition was prepared with 30 wt. % N-phenyl-1-naphthylamine, 1 wt. % 7-diethylamino-4-methylcoumarin (coumarin 1) and 69 wt. % POE oil. […] The preferred final composition of the fluorescing or daylight visible in situant in the system oil will be below the solubility limits.

[1] = POE oil or alcohols, qualitative

Molecule	soluble in POE oil or alcohols	other results
c1ccc(N=Nc2ccc(Nc3ccccc3)cc2)cc1 [4-(phenylazo)-diphenylamine]	soluble	–
c1ccc(Nc2cccc3ccccc23)cc1 [N-phenyl-1-naphthylamine]	–	solubility in AB oil (AB oil): about 10 weight percent; solubility in alcohols: 20-30%; solubility in mineral oil (mineral oil): ~3 weight percent; solubility in POE oil: 20-30 % by wt.
c1ccc(Nc2ccc3ccccc3c2)cc1 [N-phenyl-2-naphthylamine]	–	soluble in POE oil or alcohols [1]: soluble; solubility in alcohols: 1-6%; solubility in POE oil: about 5 % by wt.
O=C1c2ccccc2C(=O)c2c(O)c(O)cc(O)c21 [purpurin]	soluble	–
c1ccc2c(c1)Nc1ccccc1S2 [phenothiazine]	–	soluble in POE oil or alcohols [1]: soluble
O=C1c2cccc(O)c2C(=O)c2cccc(O)c21 [anthrarufin]	soluble	–
primuline	soluble	–

Continued, in another order:

soluble in POE oil or alcohols	Molecule	other results
soluble	O=C1c2ccc(O)c(O)c2C(=O)c2c(O)ccc(O)c21 [quinalizarin]	–
soluble	Cc1ccc2nc(-c3ccc(N=NNc4ccc(-c5nc6ccc(C)c(S(=O)(=O)[O-])c6s5)cc4)cc3)sc2c1S(=O)(=O)[O-].[Na+].[Na+] [thiazole yellow G]	–
soluble	c1ccc(Nc2ccccc2)cc1 [diphenylamine]	–
soluble	NC(=O)c1nc2ccc(O)cc2s1 [2-carbamoyl-6-hydroxybenzothiazole]	–
soluble	Oc1ccc2nc(-c3nc4ccccc4s3)sc2c1 [2′-(2-benzothiazolyl)-6′-hydroxybenzothiazole]	–
